As usually defined, the EC50 is the midpoint of the concentration-response curve.

Consider 16 molecules from ChEMBL document CHEMBL1135513 (J Med Chem, 2002).

Test [1] addresses T1, GABA-A receptor; alpha-1/beta-2/gamma-2 (Homo sapiens, UniProt P14867+P18507+P47870).
T1 sequence (P14867 whole entry): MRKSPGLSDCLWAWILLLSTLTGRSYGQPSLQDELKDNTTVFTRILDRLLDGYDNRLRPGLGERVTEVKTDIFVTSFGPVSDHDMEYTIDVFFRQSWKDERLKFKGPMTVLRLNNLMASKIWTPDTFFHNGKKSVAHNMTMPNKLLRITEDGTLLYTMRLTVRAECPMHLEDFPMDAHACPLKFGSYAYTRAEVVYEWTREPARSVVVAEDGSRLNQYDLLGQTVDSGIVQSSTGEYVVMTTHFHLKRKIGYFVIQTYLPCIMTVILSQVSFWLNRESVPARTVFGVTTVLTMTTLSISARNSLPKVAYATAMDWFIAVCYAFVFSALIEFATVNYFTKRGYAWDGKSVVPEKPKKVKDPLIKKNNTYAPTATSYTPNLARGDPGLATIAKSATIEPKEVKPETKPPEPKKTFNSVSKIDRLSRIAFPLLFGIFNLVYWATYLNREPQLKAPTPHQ
T1 sequence (P47870 whole entry): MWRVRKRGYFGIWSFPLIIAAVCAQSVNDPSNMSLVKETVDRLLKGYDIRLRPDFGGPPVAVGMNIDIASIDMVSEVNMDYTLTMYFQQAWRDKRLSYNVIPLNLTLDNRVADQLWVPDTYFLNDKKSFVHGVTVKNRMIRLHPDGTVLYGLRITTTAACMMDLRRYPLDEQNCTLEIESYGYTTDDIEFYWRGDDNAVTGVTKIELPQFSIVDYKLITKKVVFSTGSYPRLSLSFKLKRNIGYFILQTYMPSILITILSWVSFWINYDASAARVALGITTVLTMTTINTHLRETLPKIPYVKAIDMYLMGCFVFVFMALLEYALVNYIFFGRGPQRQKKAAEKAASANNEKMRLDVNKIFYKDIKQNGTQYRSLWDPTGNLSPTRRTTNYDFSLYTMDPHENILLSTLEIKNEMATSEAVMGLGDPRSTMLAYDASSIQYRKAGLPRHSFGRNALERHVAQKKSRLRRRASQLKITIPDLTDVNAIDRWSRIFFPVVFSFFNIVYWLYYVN
T1 sequence (P18507 whole entry): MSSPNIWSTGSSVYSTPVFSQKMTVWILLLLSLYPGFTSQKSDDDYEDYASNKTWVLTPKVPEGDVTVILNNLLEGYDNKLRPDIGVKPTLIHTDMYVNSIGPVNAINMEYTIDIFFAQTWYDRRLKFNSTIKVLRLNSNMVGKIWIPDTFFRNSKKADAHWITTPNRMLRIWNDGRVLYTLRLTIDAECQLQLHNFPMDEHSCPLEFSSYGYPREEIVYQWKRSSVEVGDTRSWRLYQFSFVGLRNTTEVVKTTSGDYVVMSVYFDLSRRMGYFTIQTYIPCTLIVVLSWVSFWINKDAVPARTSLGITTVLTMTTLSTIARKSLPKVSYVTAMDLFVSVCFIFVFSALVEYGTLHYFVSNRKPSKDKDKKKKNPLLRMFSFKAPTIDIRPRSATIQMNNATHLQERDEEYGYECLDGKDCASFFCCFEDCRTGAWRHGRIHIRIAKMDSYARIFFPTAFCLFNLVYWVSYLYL
Kind of test: Direct activation of human Gamma-aminobutyric acid A receptor alpha-1-beta-2-gamma-2. It is filed as protein-complex assay.

Test [2] relates to Xenopus laevis. Kind of test: Loss of righting reflex (LORR) in tadpoles was determined for anesthetic activity. In kind it is functional, organism-based, frog. As to conditions: Tadpole.
Test [3] deals with T1, GABA-A receptor; alpha-1/beta-2/gamma-2. The test can be described thus: Potentiation of GABA responses at human Gamma-aminobutyric acid A receptor alpha-1-beta-2-gamma-2. It is filed as protein-complex assay.
In test [4] the test system is Xenopus laevis. Kind of test: Loss of righting reflex (LORR) in Xenopus laevis tadpoles was determined for anesthetic activity. It is filed as functional, organism-based, frog. The note with it: Tadpole.

Regarding `CCc1cccc(CC)c1N=C=S`, the EC50 is 316 µM in test [1], 158 µM in the test with Xenopus laevis [2] and 15.8 µM in test [3].
Take `Oc1ccccc1C1CCCC1`: the EC50 in test [3] was 100000 µM.
`Oc1ccccc1` [PHENOL]: the EC50 with Xenopus laevis [2] was 1580 µM; in test [3] it was 1000 µM.
For `CC(C)c1cc(O)c(O)c(C(C)C)c1`, the EC50 in test [1] is 200 µM; in the test on Xenopus laevis [2] it was 50.1 µM; in test [3], 39.8 µM.
For `Oc1c(C2CCCCC2)cccc1C1CCCCC1`, the concentration for a half-maximal effect (EC50) in test [3] is 100000 µM.
For the molecule `CC(C)c1ccccc1O`, the EC50 in test [1] is 158 µM; with Xenopus laevis [2], 126 µM; in test [3], 39.8 µM.
As to `COc1cccc(OC)c1O` [SYRINGOL], the EC50 in test [3] is 100000 µM.
For `CCc1cccc(CC)c1Br`, the EC50 in test [1] is 126 µM; in the test with Xenopus laevis [2], 158 µM; in test [3], 20 µM.
On to `Cc1cccc(C)c1O`, for which the figures for the EC50 (in test [1]; in the test with Xenopus laevis [2]; in test [3]) were 200 µM, 63.1 µM and 126 µM, respectively.
For `Cc1cccc(C(C)(C)C)c1O`, in that order: 20 µM, 31.6 µM and 0.501 µM.
Consider `CC(C)(C)c1cc(O)cc(C(C)(C)C)c1`, for which the EC50 in test [1] is 501 µM; in the test on Xenopus laevis [2], 100 µM; in test [3], 100 µM.
As for `CC(C)c1cccc(C(C)C)c1O` [PROPOFOL], the EC50 in test [1] is 10 µM; with Xenopus laevis [2] it was 2 µM; in test [3], 2 µM.
Consider `CC(C)Cc1cccc(CC(C)C)c1O`, for which the EC50 in test [1] is 20 µM; with Xenopus laevis [2], 0.398 µM; in test [3] it was 2.51 µM.
Regarding `CC(C)c1cc(I)cc(C(C)C)c1O`, the EC50 is 31.6 µM in test [1], 10 µM in test [3] and 2.51 µM in the test on Xenopus laevis [4].
With `CCc1cccc(CC)c1O`, the EC50 in test [1] is 126 µM; in the test with Xenopus laevis [2] it was 20 µM; in test [3] it was 12.6 µM.
For `CCc1cccc(CC)c1N=C=O`, in that order: 251 µM, 158 µM and 25.1 µM.
